The record followed here is publication PMC3447335, “Evaluation of Pseudopteroxazole and Pseudopterosin Derivatives against Mycobacterium tuberculosis and Other Pathogens” (Marine Drugs, 2012).

Holding throughout (assay): microbe, parasite or virus in culture
Format in all cases: cell-based

In test [1] the test system is M. tuberculosis H37Rv isogenic strain resistant to kanamycin (KMr). To be noted: Mycobacterium tuberculosis, read-out: MABA MIC KMr.
In test [2] the test system is M. tuberculosis H37Rv isogenic strain resistant to rifampin (RMPr). To be noted: Mycobacterium tuberculosis, read-out: MABA MIC RMPr. A general note: Alamar Blue is a resazurin reagent that responds to reducing activity.
The test system of test [3] is M. tuberculosis H37Rv isogenic strain resistant to cycloserine (CSr). To be noted: Mycobacterium tuberculosis, read-out: MABA MIC CSr.
In test [4] the test system is M. tuberculosis H37Rv isogenic strain resistant to streptomycin (SMr). To be noted: Mycobacterium tuberculosis, read-out: MABA MIC SMr.
Test [5] concerns M. tuberculosis H37Rv isogenic strain resistant to isoniazid (INHr). To be noted: Mycobacterium tuberculosis, read-out: MABA MIC INHr.
The subject of test [6] is M. tuberculosis H37Rv isogenic strain resistant to moxifloxacin (MOXr). As to conditions: Mycobacterium tuberculosis, read-out: MABA MIC MOXr.

In brackets after ≈: the same amount, converted by molar mass.

As to `CC(C)=C[C@@H]1C[C@H](C)[C@H]2CC[C@H](C)c3c2c1c(C)c1ncoc31` [Compound 1, pseudopteroxazole], the MIC was found to be 16 µg/mL (≈ 51.7 µM) in test [1]; 8 µg/mL (≈ 25.9 µM) in test [2]; 14 µg/mL (≈ 45.2 µM) in test [3]; 14 µg/mL (≈ 45.2 µM) in test [4]; 8 µg/mL (≈ 25.9 µM) in test [5]; 8 µg/mL (≈ 25.9 µM) in test [6].
In the case of `NNC(=O)c1ccncc1` [Isoniazid], the MIC in test [1] was 0.13 µg/mL (≈ 0.948 µM); in test [2], 0.12 µg/mL (≈ 0.875 µM); in test [3] it was 0.12 µg/mL (≈ 0.875 µM); in test [4], 0.13 µg/mL (≈ 0.948 µM); in test [5] it was over 1.1 µg/mL; in test [6], 0.03 µg/mL (≈ 0.219 µM).
As to `CO[C@H]1/C=C/O[C@@]2(C)Oc3c(C)c(O)c4c(O)c(c(/C=N/N5CCN(C)CC5)c(O)c4c3C2=O)NC(=O)/C(C)=C\C=C\[C@H](C)[C@H](O)[C@@H](C)[C@@H](O)[C@@H](C)[C@H](OC(C)=O)[C@@H]1C` [Rifampin, reference compound], the MIC in test [1] was 0.02 µg/mL (≈ 0.0243 µM); in test [2], over 3.3 µg/mL; in test [3], 0.01 µg/mL (≈ 0.0122 µM); in test [4], 0.08 µg/mL (≈ 0.0972 µM); in test [5] it was 0.02 µg/mL (≈ 0.0243 µM); in test [6] it was 0.02 µg/mL (≈ 0.0243 µM).
